Assay results from publication PMC10094171, “Development of Novel Pt(IV)-Carbohydrate Derivatives as Targeted Anticancer Agents against Osteosarcoma” (International Journal of Molecular Sciences, 2023).

Columns and labels:
[1] = tested on: MG63 cells; experiment: 2D MTT cell viability assay, MG63 osteosarcoma cells; format: cell-based, Human
Experimental: (§1) The drugs were reconstituted in dimethyl sulfoxide (DMSO) at 1 mg/mL concentration, before being diluted in culture media at the required concentration. A 2D in vitro screening of all the drugs was performed at 72 h in a wide concentration range (0.5; 1.5, 5, 15, 30, 60 and 100 µM) on the three different cell lines in terms of cell viability, and the IC50 was calculated. The cell morphology in the presence of the complexes was evaluated at 15 and 30 µM concentrations, for MG63 and SAOS-2 and hFOBs cells, respectively, according to the IC50 at 72 h. […] For the models, a composite hydroxyapatite-based scaffold (MgHA/Coll), as a bone-like matrix, was used in combination with MG63 cells.
(§2) Cell culture. […] The cell number and viability were determined using the trypan blue dye exclusion test, and all cell handling procedures were performed under a laminar flow hood in sterility conditions.
(§3) MTT cell viability assay. A quantitative analysis of cell viability was carried out by using MTT assay, following the manufacturer’s instructions. […] After 15 min of incubation under slight stirring conditions, the absorbance of formazan was read at 570 nm by using a Multiskan FC Microplate Photometer (Thermo Fisher Scientific, Waltham, MA, USA). The values of absorbance are directly proportional to the number of metabolic active cells in each well. […]

[2] = tested on: SAOS-2 cells; experiment: 2D MTT cell viability assay, SAOS-2 osteosarcoma cells; format: cell-based, Human; settings: SAOS-2, 2D, 72 h
Experimental: as §1, §2, §3

[3] = tested on: hFOBs cells; experiment: 2D MTT cell viability assay, non-cancerous human foetal osteoblasts; format: cell-based; settings: hFOBs (healthy cells), 72 h
Experimental: as §1, with “calculated.” for “calculated. The cell morphology in the presence of the complexes was evaluated at 15 and 30 µM concentrations, for MG63 and SAOS-2 and hFOBs cells, respectively, according to the IC50 at 72 h.”
as §2, §3
Statistical Analysis. […] The MTT results were further analysed using one-way analysis of variance (one-way ANOVA) and Dunnett’s multiple comparisons test. […]

[4] = tested on: MG63 cells on bone-mimetic scaffold; experiment: 3D scaffold-based osteosarcoma model (3D OS model), MTT cell viability; parameters: species or system Human; settings: 15 µM, MG63 3D OS model
Experimental: as §1
Synthesis of bone-mimetic scaffolds. The Mg-doped hydroxyapatite collagen composite scaffolds were designed and synthesised at ISSMC of CNR of Italy. In brief, 150 g of collagen gel (1 wt%, Opocrin SpA, MO, Italy) was diluted into a phosphoric acid solution (2.4 g in 500 mL; H3PO4, 85 wt.%, Sigma-Aldrich) at room temperature to obtain an acidic aqueous homogenous suspension. […]
MTT cell viability assay. A quantitative analysis of cell viability was carried out by using MTT assay, following the manufacturer’s instructions. […]

## N.N.[Cl][Pt][Cl] [Cisplatin, cis-[(NH3)2PtCl2], reference compound]
[1]; 15 µM, 2D standard culture, p-value ≤ 0.0001
  effect on viable cells in 2D standard culture: significantly reduced the viable cells
[1]; MG63, 2D, MTT, 72 h
  IC50: 12.2 µM
[2]
  IC50: 13.7 µM
[3]
  IC50: 4.11 µM
[3]; listed as cisplatin
  IC50: 4.1 µM
[4]
  effect on cell viability in 3D OS model: did not compromise the cell viability
